Literature values in patent US20110009340A1, “COMBINATION OF AN IRON CHELATOR AND AN IMMUNOSUPPRESSANT AND USE THEREOF” (NOVARTIS AG, priority 2008, published 2011).

solubility in methanol (methanol): slightly soluble
solubility in water (water): freely soluble
Structure (SMILES): CC(=O)N(O)CCCCCNC(=O)CCC(=O)N(O)CCCCCNC(=O)CCC(=O)N(O)CCCCCN.CS(=O)(=O)O [Deferoxamine mesylate USP, N-[5-[3-[(5-aminopentyl)hydroxycarbamoyl]propionamido]pentyl]-3-[[5-(N-hydroxyacetamido)pentyl]carbamoyl]propionohydroxamic acid monomethanesulfonate (salt)]
